# Data: patent US9376499B2, “PAR-1 activation by metalloproteinase-1 (MMP-1)” (Tufts Medical Center, Inc., priority 2009, dated 2016)
# Key:
# PAR1 [1] = test: Release of PAR1 N-terminal cleavage peptide from gel-filtered platelets (dot blot, IIaR-A antibody); format: cell-based, human; conditions: for block of collagen-induced release of PAR1 N-terminal peptide: 5 μg/ml collagen, 10 min, 37° C., Ab 20 μg/ml, ARC 0.5 μM, ASA 1 mM
# From the text: To further understand how collagen is able to activate significant amounts of endogenous MMP-1 collagenase activity on the surface of platelets, experiments were devised to determine if PAR-1 is cleaved in either an autocrine or paracrine manner following exposure to collagen. Using a monoclonal antibody raised against the amino-terminal thrombin-cleavage peptide region of PAR1, residues 32-46 (Loew et al., 2000), the relative abilities of thrombin, MMP-1 and collagen to cause cleavage of platelet PAR1 was assessed. Gel filtered platelets were treated for 10 min with thrombin (3 nM), MMP-1 (3 nM), collagen (5 μg/ml), in the presence or absence (PBS buffer) of 0.00013 U hirudin or 5 μM FN-439 at 37° C. Supernatants were concentrated 20-fold and applied to nitrocellulose membranes, then probed with the IIaR-A monoclonal antibody. The PAR1 N-terminal thrombin deavage peptide (A26-R41) and PAR1 flexible linker peptide (N-acetyl-T67-L84 -C) (Kuliopulos et al., 1999) served as positive and negative controls (100 ng), respectively.
# These platelets were then stimulated with collagen (5 μg/ml) for 10 min. at 37° C. Supernatants were concentrated 20-fold and applied to nitrocellulose membranes, then probed with the IIaR-A monoclonal antibody. […] FN-439, or an MMP1-blocking antibody (20 μg/ml) but not by thrombin inhibitor, hirudin (see FIG. 1E, FIG. 1G).
# p38 MAPK = test: Collagen-induced phospho-p38 MAPK in platelets (western blot); format: cell-based, human; conditions: 5 or 20 μg/ml collagen or 10 nM MMP-1; ARC 0.5 μM, aspirin 1 mM
# Method: The effect of pharmacologic blockage of metalloproteases or PAR1 on collagen-dependent platelet aggregation was then tested (see FIG. 5). […] Platelets were pre-incubated for 5 min with the thrombin inhibitors PPACK (200 μM) or hirudin (1 U/ml), the Zn-chelator 1,10-phenanthroline (1,10-PA; 100 μM), the broad spectrum metalloprotease inhibitor MMP-200 (200 nM), the MMP-1 inhibitor FN-439 (3 μM), the PAR1 ligand binding site inhibitor RWJ-56110 (1 μM), the PAR1 blocking antibody (75 μg/ml), the PAR1 pepducin lipopeptides P1pal-12 (3 μM) or P1pal-7 (3 μM), the PAR4 pepducin lipopeptide P4pal-10 (3 μM), MMP-8 inhibitor (25 nM) or MMP9/13 inhibitor (10 nM).
# In FIG. 5B, platelets were treated as in FIG. 5A and then lysed with Laemmli sample buffer 5 min after addition of collagen, p38 MAPK activity was then assessed by western blot with a p38 MAPK phospho-Ab and total p38 loading was determined using a p38 MAPK antibody.
# Rho-GTP = test: Collagen-induced Rho-GTP activity in platelets (western blot); format: cell-based, human; conditions: 5 or 20 μg/ml collagen or 10 nM MMP-1; ARC 0.5 μM, aspirin 1 mM
# Method: In FIG. 5C, platelets were treated as in FIG. 5B and then Rho GTP activity was assessed by western blot.
# Representative blots are shown at the bottom of FIGS. 5B-D. Data are the mean±s.d. of three experiments. P*<0.01, #<0.05.
# platelets [2] = test: Platelet thrombus formation on collagen surface under arterial flow, heparin-anticoagulated whole blood; format: cell-based, human; conditions: heparin 10 U/mL; shear rate 1,000 s-1; FN-439 3 μM, RWJ-56110 1 μM, pepducins 3 μM, aspirin 1 mM
# Method: Following incubation with inhibitors, the blood was perfused over a glass slide coated with fibrillar collagen type I.
# A flow chamber (Glycotech) with Type-I fibrillar collagen-coated glass slides was mounted on the stage of an IMT-2 inverted microscope (Olympus) equipped with Retiga 1300 digital camera (QImaging) and 40× objective. One of the flow chamber inlets was connected to a syringe pump (Harvard Apparatus) calibrated to create a shear rate of 1,000^s-1. The whole blood pretreated with the various pharmacologic inhibitors was then perfused over the collagen-coated glass slide. After 2-15 min of perfusion, blood was removed from the flow chamber by gentle displacement with PIPES buffer and images of 8-10 fields were acquired using OpenLab software (Improvision). Acquired images were further analyzed using NIH Image 1.63 software. Images were first sharpened and the edges of separate platelets and platelet aggregates were determined. Following the adjustment of threshold, images were converted into the binary format, and the particle analysis function was activated to highlight the regions covered by platelets with the sensitivity set to one single adherent thrombocyte. For the conversion of pixels into square micrometers, a calibration curve was built using 2.5, 6, 20, 25, and 45 μm polystyrene beads (Polyscience) using acquisition conditions identical to the experimental. The mean area of formed thrombus was determined at 7 min. Area measurements in FIG. 6B represent the mean±s.e. of three separate experiments from five different blood donors.
# platelets [3] = test: Platelet thrombus formation on collagen surface under arterial flow, CTI-anticoagulated whole blood; format: cell-based, human; conditions: CTI 30 μg/mL, hirudin 0.0013 U/mL, aspirin 1 mM
# Method: Collagen-activated platelets also provide a pro-coagulant surface and produce tissue factor, which aids in the production of thrombin (Giesen at al., 1999; Mackman, 2004; Schwertz et al., 2006).
# Whole blood was anti-coagulated with CTI (30 μg/mL) to block the contact pathway, otherwise the experiments were conducted identically as in FIG. 6A. Hirudin was used as indicated at 0.0013 UImL.
# platelets [4] = test: Collagen-dependent aggregation of gel-filtered human platelets (light transmittance); format: cell-based; conditions: for inhibition (loss) of collagen-induced platelet aggregation: 5 μg/ml collagen, 1,10-PA 100 μM, MMP-200 200 nM, FN-439 3 μM, RWJ-56110 1 μM, PAR1 Ab 75 μg/ml, pepducins 3 μM, PPACK 200 μM, hirudin 1 U/ml
# Method: Platelet pellets and their supernatants were prepared as follows. […] following established informed consent procedures. […] Alternatively, whole blood was obtained from Hartley Sprague guinea pigs (drawn from the vena cava) into 3% citrate plus 10 U/ml heparin. Washed platelets from the guinea pigs were prepared in PIPES buffer. Platelet aggregation was measured with a Chronolog 560VS/490-2D aggregometer using modified PIPES buffer as a blank. Samples were incubated for 5 min in the presence of inhibitors and 1.8 mM CaCl2 prior to addition of agonist. All reactions were in final volumes of 250 μl at 37° C. while stirring at 900 rpm.
# The effect of pharmacologic blockage of metalloproteases or PAR1 on collagen-dependent platelet aggregation was then tested (see FIG. 5). Gel-filtered platelets from healthy individuals (supplemented with 0.3 mg/ml fibrinogen) were challenged with 5 μg/ml collagen in the presence or absence (0.2% DMSO vehicle) of the indicated inhibitors and allowed to stir at 900 rpm in an aggregometer cuvette (250 μL) at 37° C.
# In FIG. 5A, platelet aggregation was monitored by light transmittance.
# PAR1 [5] = biological target: T1, PAR1 (Homo sapiens, UniProt P25116); test: PAR1-dependent RhoA activation (Rho-GTP) in platelets by tethered-ligand peptides; format: cell-based; conditions: 1 μM RWJ-56110
# T1 construct: able to cleave PAR1 on the surface of human platelets; endogenous in cells; host or cells: gel-filtered or washed human platelets
# T1 sequence (P25116 22-425): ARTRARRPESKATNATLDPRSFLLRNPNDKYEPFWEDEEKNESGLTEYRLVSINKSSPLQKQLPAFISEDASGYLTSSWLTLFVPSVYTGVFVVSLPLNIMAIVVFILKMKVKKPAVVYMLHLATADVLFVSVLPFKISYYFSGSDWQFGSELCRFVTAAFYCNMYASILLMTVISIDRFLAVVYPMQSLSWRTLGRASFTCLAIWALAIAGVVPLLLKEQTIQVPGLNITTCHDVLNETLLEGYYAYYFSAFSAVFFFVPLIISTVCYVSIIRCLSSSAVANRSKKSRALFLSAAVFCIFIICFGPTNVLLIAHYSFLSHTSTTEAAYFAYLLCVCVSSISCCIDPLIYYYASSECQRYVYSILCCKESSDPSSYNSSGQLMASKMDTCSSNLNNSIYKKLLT
# Method: Gel-filtered human platelets, supplemented with 0.3 mg/mL fibrinogen, were treated with 0.2% DMSO vehicle, or 30 μM SFLLRN (TRAP), PR-TRAP or reversed peptide (RP-TRAP), for 5 min at 37° C. in presence or absence of 1 μM RWJ-56110 as indicated. Platelets were lysed and Rho-GTP and total Rho was determined by Western analysis as described in the Experimental Procedures. Western bands were quantified by densitometry and results expressed relative to fold-increase from basal.
# PAR1 [6] = biological target: T1, PAR1; test: Platelet shape change (decrease in light transmittance); format: cell-based; conditions: 1 μM RWJ-56110
# Method: In FIG. 3C, the ability of the […] peptide (PR-TRAP) to induce a change in platelet shape was determined. Washed human platelets were pretreated with 2 mM EGTA and then treated with the indicated agonists in the presence or absence of 1 μM RWJ-56110 while stirring at 1100 rpm. The decrease in light transmittance is an indication of the platelet shape change reaction.
# In FIG. 4B, the ability of MMP-1 to induce platelet shape change was determined. Washed human platelets were pretreated with 2 mM EGTA and then challenged with MMP-1 in the presence or absence of 1 μM RWJ-56110 while stirring at 1100 rpm. Shape change was measured as described above.
# PAR1 [7] = biological target: T1, PAR1; test: MMP-1-induced PAR1-dependent calcium flux in platelets; format: cell-based; conditions: RWJ-56110
# Method: In FIG. 4C, the induction of PAR1-dependent calcium fluxes by MMP-1 was measured. Calcium flux measurements of gel filtered platelets following challenge with MMP-1 in the presence or absence of RWJ-56110 were performed at 25° C. with emission recorded at 510 nm and dual excitation at 340 and 380 nm as described (Kuliopulos. 1999).
# PAR1 [8] = biological target: T1, PAR1; test: MMP-1-induced platelet aggregation; format: cell-based; conditions: 1 μM RWJ-56110
# Method: In FIG. 4D, the induction of platelet aggregation by MMP-1 was determined. Gel-filtered platelets were challenged with MMP-1 in the presence or absence (0.2% DMSO vehicle) of the PAR1 inhibitor 1 μM RWJ-56110.
# MAPKAP-K2 = test: Collagen activation of phospho-MAPKAP-K2 in platelets (data not shown); format: cell-based, human
# platelets [9] = test: Clot retraction assay in human platelet-rich plasma, collagen initiated; format: cell-based; conditions: 2.5-5 μg/ml collagen (titration 1-20 μg/ml); FN-439 5 μM, RWJ-56110 1 μM, MMP9/13 Inh 10 nM; 90 or 240 min
# Method: Platelet rich plasma (PRP) was isolated from human whole blood anti-coagulated with 4% sodium citrate. Clot retraction assays were done in 1 ml volumes containing 800 μl PBS and 200 μl PRP plus 10 μl red blood cells to enhance contrast. Samples were pretreated with FN-439 (5 μM), MMP9/13 Inh (10 nM) or RWJ-56110 (1 μM) for 15 min and clot formation was initiated with 1-20 μg/ml type I fibrillar collagen. Samples were incubated at 37° C. for 90 or 240 min and then photographed with a digital camera. Each photograph in FIG. 6I is representative of three independent experiments.
# [10] = Carotid artery FeCl3 injury arterial thrombosis model; format: in vivo, guinea pig; conditions: RWJ-56110 0.5 mg/kg; P1pal-7 0.13 mg/kg i.v.
# From the text: To assess the efficacy on arterial thrombosis by blockade of thrombin, MMP-1, or PAR1, a standard carotid artery FeCl3 injury model was used in guinea pigs. FeCl3 causes denudation of the artery and exposure of type I collagen and other subendothelial matrix proteins. The effects of blocking thrombin with bivalirudin, MMP-1 with FN-439, and PAR1 with either the small molecule antagonist RWJ-56110 or the P1pal-7 pepducin on arterial thrombosis were then compared using a dopier probe.
# For these arterial thrombosis experiments, 10 min after i.v. administration of vehicle (−), bivalirudin, RWJ-56110, P1 pal-7 or FN-439 (n=4-5) through the jugular vein at the indicated concentrations, the right carotid arteries were injured for 20 min using a 24 mm^2 piece of Bio-Rad Trans-Blot paper soaked in 20% FeCl3. Arterial flow 5 mm distal to the site of injury was measured with a 0.5 V Doppler probe (Transonic Systems). An arterial occlusion was defined as a flow rate of <0.01 V for ≧5 min. Doppler measurements were terminated at the 30 min time point following injury (* designates p<0.05).
Compound,block of collagen-induced release of PAR1 N-terminal peptide (PAR1 [1]),effect on activation of phospho-p38 MAPK (p38 MAPK),effect on activation of Rho-GTP (Rho-GTP),attenuation of growth rate and size of platelet aggregate strings (platelets [2]),effect on size of platelet micro-thrombi on collagen surfaces (platelets [3]),inhibition (loss) of collagen-induced platelet aggregation (platelets [4]),further results
CC(=O)Oc1ccccc1C(=O)O [aspirin],no effect,no effect,no effect,little or no effect,did not affect,,
CSCCNc1nc(SCCC(F)(F)F)nc2c1ncn2[C@@H]1O[C@H](COP(=O)(O)OP(=O)(O)C(Cl)(Cl)P(=O)(O)O)[C@@H](O)[C@H]1O [AR-C69931MX],no effect,no effect,no effect,,,,"suppression of aggregation to collagen (platelets [4]; ARC 0.5 μM, aspirin 1 mM): could still suppress"
NCC[C@H](NC(=O)[C@H](Cc1ccc(F)c(F)c1)NC(=O)Nc1ccc2c(CN3CCCC3)cn(Cc3c(Cl)cccc3Cl)c2c1)C(=O)NCc1ccccc1 [RWJ-56110],,,,~75%,,50%,block of signaling induced by PR-TRAP (PAR1 [5]): completely blocked; block of PR-TRAP-induced platelet shape change (PAR1 [6]): completely blocked; inhibition of MMP-1-elicited platelet shape change (PAR1 [6]): inhibited; inhibition of MMP-1-elicited calcium mobilization (PAR1 [7]): inhibited; inhibition of MMP-1-elicited platelet aggregation (PAR1 [8]): inhibited; block of collagen-activation of phospho-MAPKAP-K2 (MAPKAP-K2): blocked; inhibition of clot formation and retraction (platelets [9]): nearly identical pattern of inhibition; effect on mean occlusion time [10]: did not appreciably affect
hirudin,,,,,no effect,no effect,"block of thrombin-induced release of N-terminal cleavage peptide of PAR1 (PAR1 [1]; 3 nM thrombin, 0.00013 U hirudin): blocked"
